These results are taken from PubChem BioAssay (NCI).

Structures are written as SMILES. “And” between values parts separate entries of the source, which are not always exact repeats. Equal values may be shown once.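 Test compounds were applied to cells in 96-well plates for 48 hours at 5 doses. At the GI50, growth is halved. TGI denotes the concentration required for complete inhibition of growth.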

Among the test systems are LOX IMVI melanoma; UO-31 renal; HOP-92 NSCLC; DU-145 prostate; RXF 393 renal; HOP-62 NSCLC; NCI/ADR-RES ovarian; ACHN renal; SK-MEL-2 melanoma; EKVX NSCLC.
What all share (experiment): growth of human tumour cells (NCI), 48 h

In the case of `CCn1c(-c2nonc2N)nc2c(C#CC(C)(C)O)ncc(OC3CCNCC3)c21`, the GI50 in the experiment on LOX IMVI melanoma is 8.5 µM; in the experiment on UO-31 renal, > 25 µM; in the experiment with HOP-92 NSCLC it was > 25 µM; with DU-145 prostate it was 10.4 µM; in the experiment on RXF 393 renal, 2.84 µM; with HOP-62 NSCLC, > 16.4 µM. Also, the GI50 in the experiment with NCI/ADR-RES ovarian was > 25 µM; in the experiment with ACHN renal, > 25 µM; with SK-MEL-2 melanoma, 8.01 µM; in the experiment with EKVX NSCLC it was > 25 µM. Besides, the TGI was > 25 µM in the experiment on LOX IMVI melanoma; > 25 µM in the experiment with UO-31 renal; > 25 µM in the experiment on HOP-92 NSCLC; > 25 µM in the experiment with DU-145 prostate; 13.3 µM in the experiment on RXF 393 renal; > 25 µM with HOP-62 NSCLC. In addition, the TGI is > 25 µM in the experiment with NCI/ADR-RES ovarian, > 25 µM with ACHN renal, 19.4 µM in the experiment on SK-MEL-2 melanoma and > 25 µM in the experiment with EKVX NSCLC.
For `CS(=O)(=O)CCNCc1ccc(-c2ccc3ncnc(Nc4ccc(OCc5cccc(F)c5)c(Cl)c4)c3c2)o1`, the GI50 with LOX IMVI melanoma was 8.23 µM and 1.79 µM and 4.19 µM; in the experiment on UO-31 renal, 2.39 µM and 0.807 µM and 1.08 µM; in the experiment on HOP-92 NSCLC, 2.17 µM and 18.6 µM and 2.03 µM; in the experiment with DU-145 prostate, 7.11 µM and 2.61 µM and 6.75 µM; in the experiment with RXF 393 renal, 8.01 µM and 2.05 µM and 1.79 µM; in the experiment with HOP-62 NSCLC, > 10 µM and > 62.2 µM and 13 µM. Besides, the GI50 in the experiment on NCI/ADR-RES ovarian is 5.52 µM and 2.9 µM and 4.32 µM; in the experiment on ACHN renal, 0.539 µM and 0.435 µM and 0.323 µM; with SK-MEL-2 melanoma, > 10 µM and 2.46 µM and 5.9 µM; with EKVX NSCLC, 0.374 µM and 0.0822 µM and 0.107 µM. Also, the TGI is > 10 µM and 3.35 µM and 10.1 µM with LOX IMVI melanoma; > 10 µM and > 33 µM and 26.2 µM in the experiment on UO-31 renal; > 10 µM and > 100 µM and 14.4 µM in the experiment with HOP-92 NSCLC; > 10 µM and > 100 µM and 34.8 µM in the experiment with DU-145 prostate; > 10 µM and 4.5 µM and 7.05 µM in the experiment on RXF 393 renal; > 10 µM and > 100 µM and 43.9 µM in the experiment with HOP-62 NSCLC. Further, the TGI in the experiment on NCI/ADR-RES ovarian is > 10 µM and > 100 µM and 50.3 µM; in the experiment with ACHN renal, > 10 µM and > 100 µM and 54.4 µM; with SK-MEL-2 melanoma it was > 10 µM and 8.59 µM and 23.1 µM; in the experiment on EKVX NSCLC, > 10 µM and > 100 µM and 41.7 µM.
Consider `COc1cc2c(NCCCCCO)ncnc2c(OC)c1OC`, for which the TGI in the experiment on LOX IMVI melanoma, with UO-31 renal, in the experiment with HOP-92 NSCLC, in the experiment with DU-145 prostate, with RXF 393 renal and in the experiment on HOP-62 NSCLC was > 100 µM in each case. Also, the TGI in the experiment on NCI/ADR-RES ovarian, in the experiment on ACHN renal, with SK-MEL-2 melanoma and with EKVX NSCLC was > 100 µM throughout.
As for `CC(=O)OCC12CN(C#N)C3C4COC(CC41)C1(C(=O)N(C)c4ccccc41)C32` (stereo not drawn), the TGI in the experiment on LOX IMVI melanoma worked out at 49.1 µM; in the experiment with UO-31 renal, 31.4 µM; with HOP-92 NSCLC, 52.4 µM; in the experiment on DU-145 prostate it was 37.7 µM; with RXF 393 renal it was 38.3 µM; with HOP-62 NSCLC, 58.6 µM. In addition, the TGI in the experiment on NCI/ADR-RES ovarian is 95.8 µM; with ACHN renal, 38 µM; with SK-MEL-2 melanoma, 63.6 µM; in the experiment on EKVX NSCLC, 88.9 µM.
For the compound `NC(=O)c1cccc2c(N[C@H](CN3CCC3)c3ccc(Cl)c(C(F)(F)F)c3)ncnc12`, the GI50 with LOX IMVI melanoma is 2.73 µM; with UO-31 renal, 0.306 µM; in the experiment on HOP-92 NSCLC, 0.14 µM; with DU-145 prostate, 2.24 µM; with RXF 393 renal it was 0.141 µM; with HOP-62 NSCLC it was 0.964 µM. The GI50 in the experiment with NCI/ADR-RES ovarian is 2.52 µM; in the experiment with ACHN renal it was 1.38 µM; with SK-MEL-2 melanoma, 1.96 µM; with EKVX NSCLC, 0.878 µM. The TGI came out at 14.7 µM in the experiment with LOX IMVI melanoma; 4.91 µM in the experiment on UO-31 renal; 2.27 µM in the experiment with HOP-92 NSCLC; 16.2 µM in the experiment on DU-145 prostate; 1.4 µM in the experiment with RXF 393 renal; 14.5 µM in the experiment on HOP-62 NSCLC. Besides, the TGI in the experiment with NCI/ADR-RES ovarian is 14.4 µM; in the experiment with ACHN renal, 13.5 µM; with SK-MEL-2 melanoma it was 9.74 µM; in the experiment with EKVX NSCLC, 10.3 µM.
With `N#Cc1c(NCc2ccccc2)nc(NCc2ccccc2)c(C#N)c1-c1ccc(Cl)cc1`, the GI50 with LOX IMVI melanoma was > 50 µM and 29.7 µM; in the experiment with UO-31 renal it was > 100 µM; with HOP-92 NSCLC it was > 50 µM; with DU-145 prostate, > 50 µM and 52.8 µM; in the experiment on RXF 393 renal it was 65.5 µM; in the experiment with HOP-62 NSCLC it was > 50 µM and 22.3 µM. The GI50 in the experiment on NCI/ADR-RES ovarian was > 50 µM and 96.6 µM; in the experiment with ACHN renal, > 50 µM and 43.4 µM; with EKVX NSCLC it was 50.8 µM. The TGI is > 100 µM with LOX IMVI melanoma; > 100 µM in the experiment on UO-31 renal; > 50 µM in the experiment with HOP-92 NSCLC; > 100 µM in the experiment on DU-145 prostate; > 100 µM with RXF 393 renal; > 50 µM and 62.7 µM in the experiment with HOP-62 NSCLC. The TGI is > 100 µM in the experiment on NCI/ADR-RES ovarian; > 100 µM in the experiment with ACHN renal; > 50 µM and 30.4 µM with SK-MEL-2 melanoma; > 100 µM in the experiment on EKVX NSCLC.
As for `COc1cc2c3c(n(CCCN4CCNCC4)c(=O)c2cc1OC)-c1cc2c(cc1C3=O)OCO2`, the GI50 is 0.0732 µM in the experiment with LOX IMVI melanoma; 1.19 µM with UO-31 renal; 0.041 µM in the experiment with HOP-92 NSCLC; 0.0439 µM with DU-145 prostate; 0.811 µM in the experiment with RXF 393 renal; 0.0265 µM with HOP-62 NSCLC. Besides, the GI50 in the experiment on NCI/ADR-RES ovarian was 2.77 µM; with ACHN renal, 0.0394 µM; in the experiment on SK-MEL-2 melanoma it was 2.91 µM; in the experiment on EKVX NSCLC, 8.51 µM. The TGI with LOX IMVI melanoma was found to be 0.757 µM; with UO-31 renal, 10.6 µM; in the experiment with HOP-92 NSCLC, 1.28 µM; with DU-145 prostate, 1.02 µM; with RXF 393 renal it was 4.89 µM; with HOP-62 NSCLC it was 0.138 µM. For the same compound, the TGI in the experiment on NCI/ADR-RES ovarian is 11.5 µM; in the experiment on ACHN renal it was 0.283 µM; with SK-MEL-2 melanoma, 28.3 µM; with EKVX NSCLC it was 17.2 µM.
In the case of `COC(=O)c1ccc2nc(-c3cc4ccccc4n3C)n(CCCCOc3cc4c(cc3OC)C(=O)N3CCC[C@H]3C=N4)c2c1`, the GI50 in the experiment on LOX IMVI melanoma is 0.592 µM; with UO-31 renal, 0.389 µM; with HOP-92 NSCLC, 0.347 µM; with DU-145 prostate, 0.234 µM; with RXF 393 renal it was 0.687 µM; in the experiment with HOP-62 NSCLC, 0.905 µM. The GI50 is 3.02 µM in the experiment with NCI/ADR-RES ovarian, 1.17 µM in the experiment with ACHN renal and 2.41 µM in the experiment with EKVX NSCLC. Also, the TGI in the experiment with LOX IMVI melanoma is 1.74 µM; with UO-31 renal it was 2.19 µM; in the experiment with HOP-92 NSCLC, 2.77 µM; with DU-145 prostate, 0.564 µM; with RXF 393 renal it was 2.27 µM; in the experiment with HOP-62 NSCLC, 3.76 µM. The TGI was 9.8 µM in the experiment with NCI/ADR-RES ovarian, 6.75 µM in the experiment on ACHN renal, 0.631 µM in the experiment with SK-MEL-2 melanoma and 6.46 µM in the experiment with EKVX NSCLC.
